Experimental data taken from PubChem BioAssay AID248 (DTP/NCI, 2004).
“And” between values parts separate entries of the source, which are not always exact repeats. Equal values may be shown once. Inconclusive results and toxic doses are left out. No stated cut-off is given here; in the data, active means T/C of 150% or more; inactive means T/C below 125%.

System: L1210 leukemia ip in BDF1 mice, survival T/C
Experiment: NCI In Vivo Anticancer Drug Screen. Data for tumor model L1210 Leukemia (intraperitoneal) in B6D2F1 (BDF1) mice
Conditions: endpoint: mean survival time, higher = longer survival
How it was run: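 Transplantable tumor model; survival measured in treated vs vehicle control mice. Value = treated/control.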

Measured: T/C

CN(Cc1cnc2nc(N)nc(N)c2n1)c1c(Cl)cc(C(=O)NC(CCC(=O)O)C(=O)O)cc1Cl (centres undefined)
inactive: dose: 40.0 mg/kg/injection, schedule: Q01DX Z (oral), vehicle: alkali diluted with saline 102 % of control | dose: 50.0 mg/kg/injection, schedule: Q## X003 (ip), vehicle: other 124 % of control | dose: 50.0 mg/kg/injection, schedule: Q## X016 (ip), vehicle: other 121 % of control | dose: 70.0 mg/kg/injection, schedule: Q01DX001 (ip), vehicle: methylcellulose (MC) 116 % of control | dose: 70.0 mg/kg/injection, schedule: Q01DX Z (ip), vehicle: clinical formulation 103 % of control | dose: 70.0 mg/kg/injection, schedule: Q07DX Z (ip), vehicle: methylcellulose (MC) 116 % of control | dose: 80.0 mg/kg/injection, schedule: Q01DX Z (im), vehicle: alkali diluted with saline 113 % of control | dose: 80.0 mg/kg/injection, schedule: Q01DX Z (oral), vehicle: alkali diluted with saline 94 % of control | dose: 80.0 mg/kg/injection, schedule: Q01DX Z (sc), vehicle: alkali diluted with saline 112 % of control | dose: 90.0 mg/kg/injection, schedule: Q01DX Z (ip), vehicle: saline 94 % of control | dose: 100.0 mg/kg/injection, schedule: Q01DX001 (sc), vehicle: carboxymethylcellulose (CMC) 111 % of control | dose: 100.0 mg/kg/injection, schedule: Q04DX003 (ip), vehicle: alkali diluted with saline 124 % of control | dose: 120.0 mg/kg/injection, schedule: Q01DX001 (ip), vehicle: carboxymethylcellulose (CMC) 117 % of control | dose: 120.0 mg/kg/injection, schedule: Q## X008 (ip), vehicle: other 112 % of control | dose: 140.0 mg/kg/injection, schedule: Q01DX001 (ip), vehicle: methylcellulose (MC) 116 % of control | dose: 140.0 mg/kg/injection, schedule: Q01DX Z (ip), vehicle: clinical formulation 110 % of control | dose: 140.0 mg/kg/injection, schedule: Q07DX Z (ip), vehicle: methylcellulose (MC) 123 % of control | dose: 200.0 mg/kg/injection, schedule: Q01DX001 (sc), vehicle: carboxymethylcellulose (CMC) 114 % of control | dose: 200.0 mg/kg/injection, schedule: Q01DX001 (sc), vehicle: other 121 % of control | dose: 240.0 mg/kg/injection, schedule: Q01DX001 (ip), vehicle: alkali diluted with saline 115 % of control | dose: 240.0 mg/kg/injection, schedule: Q01DX001 (ip), vehicle: other 113 % of control | dose: 240.0 mg/kg/injection, schedule: Q## X008 (ip), vehicle: other 112 % of control | dose: 285.0 mg/kg/injection, schedule: Q01DX001 (ip), vehicle: carboxymethylcellulose (CMC) 110 % of control | dose: 400.0 mg/kg/injection, schedule: Q01DX001 (ip), vehicle: olive oil, sesame oil, peanut oil 114 % of control | dose: 400.0 mg/kg/injection, schedule: Q01DX001 (sc), vehicle: other 121 % of control | dose: 400.0 mg/kg/injection, schedule: Q07DX Z (ip), vehicle: olive oil, sesame oil, peanut oil 97 % of control | dose: 434.0 mg/kg/injection, schedule: Q01DX001 (ip), vehicle: carboxymethylcellulose (CMC) 121 % of control | dose: 480.0 mg/kg/injection, schedule: Q01DX001 (ip), vehicle: alkali diluted with saline 122 % of control | dose: 560.0 mg/kg/injection, schedule: Q01DX001 (ip), vehicle: methylcellulose (MC) 123 % of control | dose: 800.0 mg/kg/injection, schedule: Q01DX001 (ip), vehicle: olive oil, sesame oil, peanut oil 109 % of control and 120 % of control | dose: 800.0 mg/kg/injection, schedule: Q07DX Z (ip), vehicle: olive oil, sesame oil, peanut oil 106 % of control | dose: 1200.0 mg/kg/injection, schedule: Q01DX001 (ip), vehicle: olive oil, sesame oil, peanut oil 115 % of control and 122 % of control | dose: 1200.0 mg/kg/injection, schedule: Q07DX Z (ip), vehicle: olive oil, sesame oil, peanut oil 95 % of control | dose: 1600.0 mg/kg/injection, schedule: Q04DX003 (ip), vehicle: alkali diluted with saline 98 % of control | dose: 1600.0 mg/kg/injection, schedule: Q07DX Z (ip), vehicle: olive oil, sesame oil, peanut oil 101 % of control
active: dose: 40.0 mg/kg/injection, schedule: Q01DX009 (ip), vehicle: carboxymethylcellulose (CMC) 161 % of control | dose: 40.0 mg/kg/injection, schedule: Q01DX Z (ip), vehicle: methylcellulose (MC) 169 % of control | dose: 67.5 mg/kg/injection, schedule: Q01DX Z (ip), vehicle: saline 150 % of control | dose: 80.0 mg/kg/injection, schedule: Q01DX005 (ip), vehicle: carboxymethylcellulose (CMC) 158 % of control | dose: 80.0 mg/kg/injection, schedule: Q01DX006 (iv), vehicle: alkali diluted with saline 165 % of control | dose: 120.0 mg/kg/injection, schedule: Q03DX Z (ip), vehicle: methylcellulose (MC) 153 % of control | dose: 200.0 mg/kg/injection, schedule: Q04DX003 (ip), vehicle: carboxymethylcellulose (CMC) 157 % of control | dose: 200.0 mg/kg/injection, schedule: Q## X016 (ip), vehicle: other 162 % of control | dose: 400.0 mg/kg/injection, schedule: Q04DX003 (ip), vehicle: alkali diluted with saline 166 % of control | dose: 800.0 mg/kg/injection, schedule: Q04DX003 (ip), vehicle: alkali diluted with saline 168 % of control | dose: 800.0 mg/kg/injection, schedule: Q## X003 (ip), vehicle: other 169 % of control | dose: 800.0 mg/kg/injection, schedule: Q## X016 (ip), vehicle: other 165 % of control | dose: 875.0 mg/kg/injection, schedule: Q01DX001 (ip), vehicle: alkali diluted with saline 158 % of control | dose: 960.0 mg/kg/injection, schedule: Q01DX001 (ip), vehicle: carboxymethylcellulose (CMC) 158 % of control
